Assay results taken from ChEMBL document CHEMBL1275409, “Antimicrobial-resistant pathogens in intensive care units in Canada: results of the Canadian National Intensive Care Unit (CAN-ICU) study, 2005-2006” (2008).

Assays:
Format in all cases: functional
[1] = test system: Staphylococcus epidermidis; test: Antimicrobial activity against methicillin-resistant Staphylococcus epidermidis isolated from ICU patient blood assessed as resistant isolates by broth microdilution method
[2] = test system: Staphylococcus epidermidis; test: Antimicrobial activity against methicillin-susceptible Staphylococcus epidermidis assessed as resistant isolates by broth microdilution method
Enterococcus sp. [3] = test: Antimicrobial activity against vancomycin-resistant Enterococcus sp. isolated from ICU patient wound assessed as resistant isolates by broth microdilution method
Staphylococcus aureus [4] = test: Antimicrobial activity against methicillin-resistant Staphylococcus aureus isolated from ICU patient urine assessed as resistant isolates by broth microdilution method
[5] = test system: Staphylococcus epidermidis; test: Antimicrobial activity against methicillin-resistant Staphylococcus epidermidis isolated from ICU patient wound assessed as resistant isolates by broth microdilution method
[6] = test system: Staphylococcus epidermidis; test: Antimicrobial activity against methicillin-susceptible Staphylococcus epidermidis isolated from ICU patient blood assessed as resistant isolates by broth microdilution method
Staphylococcus aureus [7] = test: Antimicrobial activity against methicillin-resistant Staphylococcus aureus assessed as resistant isolates by broth microdilution method
Staphylococcus aureus [8] = test: Antimicrobial activity against methicillin-susceptible Staphylococcus aureus assessed as resistant isolates by broth microdilution method
Staphylococcus aureus [9] = test: Antimicrobial activity against methicillin-resistant Staphylococcus aureus isolated from ICU patient blood assessed as resistant isolates by broth microdilution method
Staphylococcus aureus [10] = test: Antimicrobial activity against methicillin-resistant Staphylococcus aureus isolated from ICU patient wound assessed as resistant isolates by broth microdilution method
Enterococcus sp. [11] = test: Antimicrobial activity against vancomycin-resistant Enterococcus sp. assessed as resistant isolates by broth microdilution method
Staphylococcus aureus [12] = test: Antimicrobial activity against methicillin-susceptible Staphylococcus aureus isolated from ICU patient blood assessed as resistant isolates by broth microdilution method
Enterococcus sp. [13] = test: Antimicrobial activity against vancomycin-resistant Enterococcus sp. isolated from ICU patient respiratory tract assessed as resistant isolates by broth microdilution method
[14] = test system: Staphylococcus epidermidis; test: Antimicrobial activity against methicillin-resistant Staphylococcus epidermidis isolated from ICU patient urine assessed as resistant isolates by broth microdilution method
Staphylococcus aureus [15] = test: Antimicrobial activity against methicillin-susceptible Staphylococcus aureus isolated from ICU patient urine assessed as resistant isolates by broth microdilution method
Staphylococcus aureus [16] = test: Antimicrobial activity against methicillin-susceptible Staphylococcus aureus isolated from ICU patient respiratory tract assessed as resistant isolates by broth microdilution method
Staphylococcus aureus [17] = test: Antimicrobial activity against methicillin-resistant Staphylococcus aureus isolated from ICU patient respiratory tract assessed as resistant isolates by broth microdilution method
Enterococcus sp. [18] = test: Antimicrobial activity against vancomycin-resistant Enterococcus sp. isolated from ICU patient blood assessed as resistant isolates by broth microdilution method
Staphylococcus aureus [19] = test: Antimicrobial activity against methicillin-susceptible Staphylococcus aureus isolated from ICU patient wound assessed as resistant isolates by broth microdilution method
[20] = test system: Staphylococcus epidermidis; test: Antimicrobial activity against methicillin-susceptible Staphylococcus epidermidis isolated from ICU patient urine assessed as resistant isolates by broth microdilution method
[21] = test system: Staphylococcus epidermidis; test: Antimicrobial activity against methicillin-resistant Staphylococcus epidermidis assessed as resistant isolates by broth microdilution method
[22] = test system: Staphylococcus epidermidis; test: Antimicrobial activity against methicillin-susceptible Staphylococcus epidermidis isolated from ICU patient wound assessed as resistant isolates by broth microdilution method
Enterococcus sp. [23] = test: Antimicrobial activity against vancomycin-resistant Enterococcus sp. isolated from ICU patient urine assessed as resistant isolates by broth microdilution method
Pseudomonas aeruginosa [24] = test: Antimicrobial activity against carbapenem-resistant Pseudomonas aeruginosa isolated from ICU patient wound assessed as resistant isolates by broth microdilution method
Pseudomonas aeruginosa [25] = test: Antimicrobial activity against carbapenem-resistant Pseudomonas aeruginosa isolated from ICU patient respiratory tract assessed as resistant isolates by broth microdilution method
Pseudomonas aeruginosa [26] = test: Antimicrobial activity against carbapenem-resistant Pseudomonas aeruginosa isolated from ICU patient blood assessed as resistant isolates by broth microdilution method
Escherichia coli [27] = test: Antimicrobial activity against CTX-M ESBL producing Escherichia coli isolated from ICU patient urine assessed as resistant isolates by broth microdilution method
Pseudomonas aeruginosa [28] = test: Antimicrobial activity against carbapenem-resistant Pseudomonas aeruginosa assessed as resistant isolates by broth microdilution method
Escherichia coli [29] = test: Antimicrobial activity against CTX-M ESBL producing Escherichia coli isolated from ICU patient respiratory tract assessed as resistant isolates by broth microdilution method
[30] = test system: Staphylococcus epidermidis; test: Antimicrobial activity against methicillin-susceptible Staphylococcus epidermidis isolated from ICU patient respiratory tract assessed as resistant isolates by broth microdilution method
Escherichia coli [31] = test: Antimicrobial activity against CTX-M ESBL producing Escherichia coli assessed as resistant isolates by broth microdilution method
Escherichia coli [32] = test: Antimicrobial activity against CTX-M ESBL producing Escherichia coli isolated from ICU patient blood assessed as resistant isolates by broth microdilution method
Escherichia coli [33] = test: Antimicrobial activity against CTX-M ESBL producing Escherichia coli isolated from ICU patient wound assessed as resistant isolates by broth microdilution method
Pseudomonas aeruginosa [34] = test: Antimicrobial activity against carbapenem-resistant Pseudomonas aeruginosa isolated from ICU patient urine assessed as resistant isolates by broth microdilution method
Streptococcus pneumoniae [35] = test: Antimicrobial activity against penicillin-resistant Streptococcus pneumoniae isolated from ICU patient respiratory tract assessed as resistant isolates by broth microdilution method
Streptococcus pneumoniae [36] = test: Antimicrobial activity against penicillin-resistant Streptococcus pneumoniae isolated from ICU patient blood assessed as resistant isolates by broth microdilution method
Streptococcus pneumoniae [37] = test: Antimicrobial activity against penicillin-resistant Streptococcus pneumoniae isolated from ICU patient wound assessed as resistant isolates by broth microdilution method
Streptococcus pneumoniae [38] = test: Antimicrobial activity against penicillin-resistant Streptococcus pneumoniae assessed as resistant isolates by broth microdilution method

CCCCCCCCCC(=O)N[C@@H](Cc1c[nH]c2ccccc12)C(=O)N[C@H](CC(N)=O)C(=O)N[C@@H](CC(=O)O)C(=O)N[C@@H]1C(=O)NCC(=O)N[C@@H](CCCN)C(=O)N[C@@H](CC(=O)O)C(=O)N[C@H](C)C(=O)N[C@@H](CC(=O)O)C(=O)NCC(=O)N[C@H](CO)C(=O)N[C@@H]([C@H](C)CC(=O)O)C(=O)N[C@@H](CC(=O)c2ccccc2N)C(=O)O[C@@H]1C
Activity [1]: 0%
Activity [2]: 0%
Activity (Enterococcus sp. [3]): 0%
Activity (Staphylococcus aureus [4]): 0%
Activity [5]: 0%
Activity [6]: 0%
Activity (Staphylococcus aureus [7]): 0%
Activity (Staphylococcus aureus [8]): 0%
Activity (Staphylococcus aureus [9]): 0%
Activity (Staphylococcus aureus [10]): 0%
Activity (Enterococcus sp. [11]): 0%
Activity (Staphylococcus aureus [12]): 0%
Activity (Enterococcus sp. [13]): 0%
Activity [14]: 0%
Activity (Staphylococcus aureus [15]): 0%
Activity (Staphylococcus aureus [16]): 0%
Activity (Staphylococcus aureus [17]): 0%
Activity (Enterococcus sp. [18]): 0%
Activity (Staphylococcus aureus [19]): 0%
Activity [20]: 0%
Activity [21]: 0%
Activity [22]: 0%
Activity (Enterococcus sp. [23]): 0%

Cc1nnc(SCC2=C(C(=O)O)N3C(=O)[C@@H](NC(=O)Cn4cnnn4)[C@H]3SC2)s1 [CEFAZOLIN]
Activity [1]: 100%
Activity [2]: 0%
Activity (Pseudomonas aeruginosa [24]): 7.7%
Activity (Staphylococcus aureus [4]): 100%
Activity [5]: 100%
Activity (Pseudomonas aeruginosa [25]): 4.9%
Activity [6]: 0%
Activity (Pseudomonas aeruginosa [26]): 7.7%
Activity (Staphylococcus aureus [7]): 100%
Activity (Staphylococcus aureus [8]): 0%
Activity (Staphylococcus aureus [9]): 100%
Activity (Staphylococcus aureus [10]): 100%
Activity (Escherichia coli [27]): 25.8%
Activity (Pseudomonas aeruginosa [28]): 6.2%
Activity (Staphylococcus aureus [12]): 0%
Activity [14]: 100%
Activity (Escherichia coli [29]): 11.5%
Activity (Staphylococcus aureus [15]): 0%
Activity (Staphylococcus aureus [16]): 0%
Activity (Staphylococcus aureus [17]): 100%
Activity (Staphylococcus aureus [19]): 0%
Activity [20]: 0%
Activity [21]: 100%
Activity [30]: 0%
Activity [22]: 0%
Activity (Escherichia coli [31]): 20.1%
Activity (Escherichia coli [32]): 21.9%
Activity (Escherichia coli [33]): 8.6%
Activity (Pseudomonas aeruginosa [34]): 7.8%

CC[C@H]1OC(=O)[C@H](C)[C@@H](O[C@H]2C[C@@](C)(OC)[C@@H](O)[C@H](C)O2)[C@H](C)[C@@H](O[C@@H]2O[C@H](C)C[C@H](N(C)C)[C@H]2O)[C@](C)(OC)C[C@@H](C)C(=O)[C@H](C)[C@@H](O)[C@]1(C)O [CLARITHROMYCIN]
Activity [1]: 100%
Activity [2]: 77.4%
Activity (Enterococcus sp. [3]): 60.3%
Activity (Staphylococcus aureus [4]): 100%
Activity [5]: 94.1%
Activity (Streptococcus pneumoniae [35]): 16.4%
Activity [6]: 74.6%
Activity (Streptococcus pneumoniae [36]): 13.2%
Activity (Staphylococcus aureus [8]): 20.1%
Activity (Streptococcus pneumoniae [37]): 16.7%
Activity (Enterococcus sp. [11]): 65.9%
Activity (Staphylococcus aureus [12]): 16.1%
Activity (Enterococcus sp. [13]): 61.5%
Activity [14]: 100%
Activity (Staphylococcus aureus [15]): 30%
Activity (Staphylococcus aureus [16]): 19.5%
Activity (Enterococcus sp. [18]): 68.6%
Activity (Staphylococcus aureus [19]): 23.9%
Activity [20]: 100%
Activity [21]: 96%
Activity (Streptococcus pneumoniae [38]): 15.9%
Activity [22]: 79.2%
Activity (Enterococcus sp. [23]): 70.1%

CCC[C@@H]1C[C@@H](C(=O)N[C@@H]([C@H]2O[C@H](SC)[C@H](O)[C@@H](O)[C@H]2O)[C@H](C)Cl)N(C)C1 [CLINDAMYCIN]
Activity [1]: 100%
Activity [2]: 54.8%
Activity (Staphylococcus aureus [4]): 100%
Activity [5]: 88.2%
Activity (Streptococcus pneumoniae [35]): 6.4%
Activity [6]: 43.6%
Activity (Streptococcus pneumoniae [36]): 2.6%
Activity (Staphylococcus aureus [7]): 76.1%
Activity (Staphylococcus aureus [8]): 4.4%
Activity (Streptococcus pneumoniae [37]): 0%
Activity (Staphylococcus aureus [9]): 79.6%
Activity (Staphylococcus aureus [10]): 81.5%
Activity (Staphylococcus aureus [12]): 4.6%
Activity [14]: 100%
Activity (Staphylococcus aureus [15]): 10%
Activity (Staphylococcus aureus [16]): 4.3%
Activity (Staphylococcus aureus [17]): 72.9%
Activity (Staphylococcus aureus [19]): 3.5%
Activity [20]: 100%
Activity [21]: 92%
Activity (Streptococcus pneumoniae [38]): 5.6%
Activity [22]: 70.8%

CC(=O)NC[C@H]1CN(c2ccc(N3CCOCC3)c(F)c2)C(=O)O1 [LINEZOLID]
Activity [1]: 0%
Activity [2]: 0%
Activity (Enterococcus sp. [3]): 1.6%
Activity (Staphylococcus aureus [4]): 0%
Activity [5]: 0%
Activity (Streptococcus pneumoniae [35]): 0%
Activity [6]: 0%
Activity (Streptococcus pneumoniae [36]): 0%
Activity (Staphylococcus aureus [7]): 0%
Activity (Staphylococcus aureus [8]): 0%
Activity (Streptococcus pneumoniae [37]): 0%
Activity (Staphylococcus aureus [9]): 0%
Activity (Staphylococcus aureus [10]): 0%
Activity (Enterococcus sp. [11]): 1.8%
Activity (Staphylococcus aureus [12]): 0%
Activity (Enterococcus sp. [13]): 0%
Activity [14]: 0%
Activity (Staphylococcus aureus [15]): 0%
Activity (Staphylococcus aureus [16]): 0%
Activity (Staphylococcus aureus [17]): 0%
Activity (Enterococcus sp. [18]): 2.9%
Activity (Staphylococcus aureus [19]): 0%
Activity [20]: 0%
Activity [21]: 0%
Activity (Streptococcus pneumoniae [38]): 0%
Activity [22]: 0%
Activity (Enterococcus sp. [23]): 1.5%

COc1c(N2C[C@@H]3CCCN[C@@H]3C2)c(F)cc2c(=O)c(C(=O)O)cn(C3CC3)c12 [MOXIFLOXACIN]
Activity [1]: 83.3%
Activity [2]: 41.7%
Activity (Staphylococcus aureus [4]): 100%
Activity [5]: 100%
Activity (Streptococcus pneumoniae [35]): 1.6%
Activity [6]: 34.6%
Activity (Streptococcus pneumoniae [36]): 0%
Activity (Staphylococcus aureus [7]): 90.1%
Activity (Staphylococcus aureus [8]): 6.4%
Activity (Streptococcus pneumoniae [37]): 0%
Activity (Staphylococcus aureus [9]): 89.8%
Activity (Staphylococcus aureus [10]): 88.9%
Activity (Staphylococcus aureus [12]): 6.9%
Activity [14]: 100%
Activity (Staphylococcus aureus [15]): 15%
Activity (Staphylococcus aureus [16]): 5.8%
Activity (Staphylococcus aureus [17]): 91.5%
Activity (Staphylococcus aureus [19]): 7.1%
Activity [20]: 80%
Activity [21]: 96%
Activity (Streptococcus pneumoniae [38]): 1.3%
Activity [22]: 50%

CN[C@H](CC(C)C)C(=O)N[C@H]1C(=O)N[C@@H](CC(N)=O)C(=O)N[C@H]2C(=O)N[C@H]3C(=O)N[C@H](C(=O)N[C@H](C(=O)O)c4cc(O)cc(O)c4-c4cc3ccc4O)[C@H](O)c3ccc(c(Cl)c3)Oc3cc2cc(c3O[C@@H]2O[C@H](CO)[C@@H](O)[C@H](O)[C@H]2O[C@H]2C[C@](C)(N)[C@H](O)[C@H](C)O2)Oc2ccc(cc2Cl)[C@H]1O [VANCOMYCIN]
Activity [1]: 0%
Activity [2]: 0%
Activity (Enterococcus sp. [3]): 12.5%
Activity (Staphylococcus aureus [4]): 0%
Activity [5]: 0%
Activity (Streptococcus pneumoniae [35]): 0%
Activity [6]: 0%
Activity (Streptococcus pneumoniae [36]): 0%
Activity (Staphylococcus aureus [7]): 0%
Activity (Staphylococcus aureus [8]): 0%
Activity (Streptococcus pneumoniae [37]): 0%
Activity (Staphylococcus aureus [9]): 0%
Activity (Staphylococcus aureus [10]): 0%
Activity (Enterococcus sp. [11]): 6.8%
Activity (Staphylococcus aureus [12]): 0%
Activity (Enterococcus sp. [13]): 3.3%
Activity [14]: 0%
Activity (Staphylococcus aureus [15]): 0%
Activity (Staphylococcus aureus [16]): 0%
Activity (Staphylococcus aureus [17]): 0%
Activity (Enterococcus sp. [18]): 5.4%
Activity (Staphylococcus aureus [19]): 0%
Activity [20]: 0%
Activity [21]: 0%
Activity (Streptococcus pneumoniae [38]): 0%
Activity [30]: 0%
Activity [22]: 0%
Activity (Enterococcus sp. [23]): 4%
